Measured values published in patent US7022693B2, “Treatment of lipodystrophy” (Ark Therapeutics Ltd., priority 2001, dated 2006).

Tested on: ACE activity in T-cells
Assay: ACE activity in T-cells after administration of a protease inhibitor
Type: cell-based

CC(C)C[C@H](NC(=O)[C@@H](O)[C@H](N)Cc1ccccc1)C(=O)O [bestatin]
ACE activity in T-cells: increased ACE activity
